Test results taken from patent publication US9173935B2, “Phospholipid drug analogs” (Telormedix SA, priority 2010, dated 2015).
Where two headings read alike, the source gives them in different places.

Columns and labels:
CYP2E1 = CYP2E1 (Homo sapiens (Human), UniProt P05181); test: Fluorescent High Throughput P450 assay, CYP2E1; type: biochemical; conditions: substrate MFC; read-out: CYP2E1 IC50 (Mean ± S.D.)
Description: Inhibition of the P450 isoforms was measured in specific assays using specific substrates that become fluorescent upon CYP metabolism. Compounds, dissolved in ACN (acetonitrile) (CYP2E1, CYP2C8, CYP2B6, CYP3A5) or DMSO (all remaining isoforms), were tested in duplicate (n=2) in concentration-response curves (eight concentrations) in a 96-well plate containing incubation/NADPH regenerating buffer. Specific isoenzymes and substrates were added and incubated at 37° C. Reactions were terminated at different times, depending on the assays, and plates read on a Fluoroskan Ascent at the appropriate emission/excitation wavelengths. Concentration-response curves performed in duplicate for known inhibitors for each isoenzyme were tested in every assay as positive control.

[1] = system: Raw264.7 mouse macrophage cell line; test: IL-6 and TNF-alpha secretion in Raw264.7 cells (ELISA); type: cell-based; conditions: Mus musculus, RAW264.7, 24 hours treatment, 7 doses
Description: EC50 values were determined for control and each drug candidate for IL-6 and TNF-alpha secretion. […] The cells were plated in 96 well plates and treated with TLR7 agonists for 24 hours in 7 doses. The conditioned media was removed after 24 hours for ELISA analyses. The cells were subsequently assayed for viability using the XTT assay according to the guidelines from the supplier. […] The experiment was performed in quadruplicate wells for each testing series, and the supernatant pooled and measured by ELISA in triplicates. Concentrations of IL-6 and TNF-alpha were determined by ELISA from R&D Systems using the Microsoft Excel Software. The results were analyzed in Graph Pad Prism in order to prepare dose-response curves, and for determination of EC50 values.

PBMCs = test: IL-6 and TNF-alpha secretion in PBMCs from three donors (ELISA); type: cell-based, human; conditions: Homo sapiens, PBMC
Description: EC50 values were determined for control and each drug candidate for IL-6 and TNF-alpha secretion. […] The cells were treated with TLR7 agonists for 24 hours in 7 doses. The conditioned media was removed for ELISA analyses for IL-6 and TNF-alpha, and cell survival determined by the XTT method according to the protocol from the supplier. […] Concentrations of IL-6 and TNF-alpha were determined by ELISA from R&D Systems using the Microsoft Excel Software. The results were analyzed in Graph Pad Prism in order to prepare dose-response curves, and for determination of EC50 values.

human PBMCs = test: IL-6 secretion in human PBMCs, two batches of Compound A and SC12; type: cell-based; conditions: Homo sapiens, PBMC, 24 h
Description: PBMCs were purified from two donors and plated into 96 well plates at 2×10^5 cells/well in RPMI media including human 2% heat inactivated AB serum, glutamine, Pen-strep and R-mercapto-ethanol. The cells were treated with TLR7 agonists for 24 h in 4 doses. The conditioned media was removed for ELISA analyses for IL-6, and the EC50 value determined for each compound and each batch.
All compounds were tested in four concentrations (10-1-0.1-0.01 micromolar).
Concentrations of IL-6 were determined by ELISA from R&D Systems using the Microsoft Excel software. The results were analyzed in Graph Pad Prism in order to prepare dose-response curves, and for determination of EC50 values.

whole blood = test: Cytokine secretion in human whole blood assay (ELISA); type: cell-based
Description: A volume of approximately 55 mL fresh whole blood was drawn in heparinized Vacutainers from three healthy adult anonymous volunteers as described (J. A. Ida, Journal of Immunol Methods, 310, 2006, 86-99). […] Before drawing the blood, the compounds were added to 96 well round bottom plates in a 10× diluted sample at 20 ul. The compounds were diluted in RPMI media without serum but with antibiotics. Antibiotics were added at a 10× concentration. After drawing the blood, the whole blood sample was gently mixed to obtain a homogeneous sample, and 180 ul was added to each well.
After 6 hours and 24 hours incubation, plasma was removed for ELISA (IL-6, IL-10, IL-12p40 and IFN-alpha). ELISA was made at the 6 and 24 hours time point for all concentrations. After 24 hours incubation with selected compound concentrations, cells were analyzed for activation markers by FACS.
All compounds were setup in concentrations at 0-0.01-0.03-0.1-0.5-2.0-10.0 micromolar as the final concentration. Vehicle control was DMSO control, where we used the highest concentration used for the compounds. After addition of blood, all plates were gently agitated at 37° C. and 5% CO2 until harvest. The samples were removed after 6 or 24 hours incubation, and pooled into appropriate tubes (2 ml).
Concentrations of cytokines were determined by ELISA from R&D Systems. The results were analyzed in Graph Pad Prism in order to prepare dose-response
curves, and for determination of EC50 values. FACS analysis was made by using Becton-Dickinson FACSDiva software and subsequently illustrated in Graph Pad Prism.

HLA-DR+/CD20+ B cells = test: FACS analysis of B cell activation (CD40) in whole blood; type: cell-based, human; conditions: 24 hours, 2 and 10 uM, three donors
Description: (§1) A flow cytometric analysis was performed on whole blood from three donors after treatment with two compound concentrations for 24 h. The FACS analysis for donor 1 and donor 2 was made on another day than donor 3. The compound concentrations were as follows:
B cell activation: 2 and 10 uM
(§2) The FACS analysis was used to identify whether the test compounds could induce activation of B cells, and two different subsets of dendritic cells, namely the myeloid CD11c+/CD123− DCs and the plasmacytoid CD11c−/CD123+ DCs. The following markers were studied to identify the activation status of the different subsets:
(§3) The FACS staining was performed according to the manufacturer's instructions. Lysis of red blood cells was performed before FACS staining in order to minimize auto-florescence. To include as many B cells and DCs in the study as possible the FACS analyses were performed on 500,000 cells in total for each staining. A P1 gate was set only to include relevant cells on FSC vs. SSC (see FIGS. 12-15). The results of the individual analysis were present as Mean Fluorescence Intensity
The analysis of expression of the activation marker CD40 on B cells was made on double positive HLA-DR (MHC class II) (P4 gate) and CD20 cells (B cell marker) (P8 gate).

[2] = system: HLA-DR+/CD11c+/CD123- mDCs; test: FACS analysis of myeloid DC activation in whole blood; type: cell-based, human; conditions: 24 hours, 0.1 and 0.5 uM, three donors
Description: as §1, §2, §3
The analysis of myeloid DCs was based on HLA-DR+/CD11c+/CD123-cells, thus all analyzed cells was included in the HLA-DR+ (P3) gate and CD11c+/CD123− (Q4) gate (see gates in FIGS. 13-15).

[3] = system: receptors associated with pain-related syndromes (e.g. adenosine and sodium channel); test: Radioligand binding assay among 73 primary molecular targets; conditions: SC12 at fixed concentration of 30 microM
[4] = system: AY-27 rat bladder cancer cell-line
[5] = day 12, group 1 Imiquimod 0.1%, group 2 SC12 0.38%

Chain of CYP2E1 (P05181 whole entry, looked up): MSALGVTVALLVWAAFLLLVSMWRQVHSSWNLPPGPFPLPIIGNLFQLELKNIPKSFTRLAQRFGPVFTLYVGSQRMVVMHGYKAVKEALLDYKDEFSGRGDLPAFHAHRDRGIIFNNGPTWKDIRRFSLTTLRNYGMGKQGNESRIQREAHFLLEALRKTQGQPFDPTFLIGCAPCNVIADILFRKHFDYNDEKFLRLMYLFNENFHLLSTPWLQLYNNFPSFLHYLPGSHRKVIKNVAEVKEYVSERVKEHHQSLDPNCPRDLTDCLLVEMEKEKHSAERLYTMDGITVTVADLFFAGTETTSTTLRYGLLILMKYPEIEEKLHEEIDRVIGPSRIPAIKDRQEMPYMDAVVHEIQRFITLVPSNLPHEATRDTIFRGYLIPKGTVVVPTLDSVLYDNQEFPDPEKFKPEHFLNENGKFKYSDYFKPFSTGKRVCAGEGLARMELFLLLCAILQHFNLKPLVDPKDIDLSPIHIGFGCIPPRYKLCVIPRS

Compound: CCN(CC)C(=S)S [DDTC, reference compound]
- IC50 (CYP2E1): 0.85 ± 0.01 µM

Compound: CC(C)Cn1cnc2c(N)nc3ccccc3c21 [Imiquimod, reference compound]
- EC50 ([1]; read-out: EC 50 IL 6): 2 µM
- EC50 ([1]; read-out: EC 50 TNF-alpha): 2.16 µM
- EC50 (PBMCs; 24 h, Donor 1, 24 hours, read-out: IL-6 secretion MC50): 6.35 µM
- EC50 (PBMCs; 24 h, Donor 1, 24 hours, read-out: TNFa secretion MC50): 3.07 µM
- EC50 (PBMCs; 24 h, Donor 2, 24 hours, read-out: IL-6 secretion MC50): 1.99 µM
- EC50 (PBMCs; 24 h, Donor 2, 24 hours, read-out: TNFa secretion MC50): 24.9 µM
- EC50 (PBMCs; 24 h, Donor 3, 24 hours, read-out: IL-6 secretion MC50): 4.64 µM
- EC50 (PBMCs; 24 h, Donor 3, 24 hours, read-out: TNFa secretion MC50): 22.4 µM
- EC50 (PBMCs; D1, first experiments on three donors, read-out: EC50 values, IL-6 secretion): 6.35 µM
- EC50 (PBMCs; D2, first experiments on three donors, read-out: EC50 values, IL-6 secretion): 1.99 µM
- EC50 (PBMCs; D3, first experiments on three donors, read-out: EC50 values, IL-6 secretion): 4.64 µM
- EC50 (PBMCs; average of three donors, read-out: IL-6 secretion Average EC50): 4.33 µM
- EC50 (PBMCs; average of three donors, read-out: TNFa secretion Average EC50): 16.8 µM
- EC50 (human PBMCs; Donor 1, 4 doses): 18 µM
- EC50 (human PBMCs; Donor 2, 4 doses): 18.4 µM
- IL-6 secretion induced (whole blood; 6 h incubation, up to 10.0 micromolar): low and insignificant amounts of IL-6
- IFN-alpha secretion induced (whole blood; 6 hours incubation): did not induce IFN-alpha secretion
- IL-10 production (whole blood; 6 hours incubation): no IL-10 production was seen
- IL-12p40 secretion induced (whole blood; 6 hours incubation): did not induce IL-12p40 secretion
- IL-12p40 secretion induced (whole blood; 24 hours incubation): did not induce IL-12p40
- CD40 expression (MFI) on B cells (HLA-DR+/CD20+ B cells): increased expression in all three donors
- CCR7 expression on mDCs [2]: showed high CCR7 expression
- CD80 expression on mDCs [2]: weak expression of CD80 in donor 1 and 2
- Binding to receptors associated with pain-related syndromes [3]: shown to bind
- Number of rats with a tumor positive bladder ([4]; day 12): 9 of 14
- Rats with pT2 Tumor, number (% of 14) [4, 5]: 9 (64.3%)
- Tumor free rats, number (% of 14) [4, 5]: 5 (35.7%)
- Mean weight of the rat bladders ([4]; day 12, intravesical 0.5 ml on day 2 and 5, group 1 Imiquimod 0.1%, group 2 SC12 0.38%): 0.1201 grams
- Mean number of tumors per rat bladder ([4]; group 1 Imiquimod 0.1%, group 2 SC12 0.38%): 1.71
- Signs of toxicity ([4]; intravesical instillation day 2 and 5): No signs of toxicity
- Mean invasion depth ([4]; tumor positive bladders, group 1 Imiquimod 0.1%, group 2 SC12 0.38%): 1.3333 mm
